According to US11726079B2, “Lighting systems and methods of using lighting systems for in vitro potency assay for Photofrin” (Concordia Laboratories, Inc., priority 2012, dated 2023):

System: A549 human lung carcinoma cells
Assay: Chemotherapeutic drugs as possible positive control, 24 hour incubation with XTT endpoint
Assay type: cell-based
Conditions: data not shown
Method: The broadly active chemotherapeutics drugs SN-38 (20 μM top dose), the active metabolite of irinotecan, carboplatin (7.5 mM top dose), and paclitaxel (20 μM top dose) are tested to determine if sufficient cell killing can be achieved under the anticipated assay conditions, i.e., 24 hour incubation with XTT endpoint.

Compound	cell killing (20 μM top dose)	cell killing (7.5 mM top dose)
CCc1c2c(nc3ccc(O)cc13)-c1cc3c(c(=O)n1C2)COC(=O)[C@]3(O)CC [SN-38]	None of the drugs produce sufficient cell killing	
N.N.O=C([O-])C1(C(=O)[O-])CCC1.[Pt+2] [carboplatin]		None of the drugs produce sufficient cell killing
CC(=O)O[C@H]1C(=O)[C@@]2(C)[C@H]([C@H](OC(=O)c3ccccc3)[C@]3(O)C[C@H](OC(=O)[C@H](O)[C@@H](NC(=O)c4ccccc4)c4ccccc4)C(C)=C1C3(C)C)[C@]1(OC(C)=O)CO[C@@H]1C[C@@H]2O [paclitaxel]	None of the drugs produce sufficient cell killing	
